Read-outs that look alike come from different tables or passages of the source.
Tests used:
urease [1] = conditions: granulated urea, Limburgerhof soil; for % N loss based on fertilized N quantity: 10 days' incubation, inhibitor 0.125% (w/w) based on urea, 20° C.; for % N loss relative to NBTPT without mixing partner / % N loss relative to NcHTPT without mixing partner / % N loss relative to NiBTPT without mixing partner / % N loss relative to NPenTPT without mixing partner / % N loss relative to NPTPT without mixing partner: 10 days
Description: (§1) The efficacy of the (thio)phosphoric triamides, individually and in combination, was tested by a method based on that of Fenn & Kissel ((1973) Ammonia volatilization from surface applications of ammonium compounds on calcareous soils. Soil Sci. Soc. Am. J. 37, 855-859) for their effect in limiting ammonia volatilization from urea or urea-comprising fertilizers. Three different soils in which ammonia volatilization after urea fertilization is particularly pronounced were used. These soils are distinguished by relatively high pH values of >6.5 and/or low base buffering. […] 200 g of dry soil per incubation vessel were moistened with 5.4 ml of fully demineralized water, and 1.087 g of urea (corresponds to 500 mg of urea-N) were applied in the form of granules. If urea-comprising solutions were tested, the 200 g of soil were moistened with an aqueous urea-comprising solution comprising 1.630 g of urea (corresponds to 750 mg of urea-N), without or with urease inhibitor or combinations of these. The solution was applied dropwise over the entire soil surface, using a pipette. The amount of (thio)phosphoric triamides as individual substances or in combination in different proportions was always a uniform 0.125% (w/w) based on urea. The incubations were accomplished at 20° C. (18-22° C.) in a controlled-environment cabinet. The ammonia collected in the acid trap was determined quantitatively as ammonium using a continuous flow analyzer (from Bran+Luebbe), proceeding by methods with which the skilled worker is familiar.

urease [2] = conditions: Limburgerhof soil; for % N loss based on fertilized N quantity: 30% strength urea solution, 10 days' incubation, inhibitor 0.125% (w/w) based on urea, 20° C.; for % N loss relative to NBTPT without mixing partner / % N loss relative to NcHTPT without mixing partner / % N loss relative to NiBTPT without mixing partner / % N loss relative to NPenTPT without mixing partner / % N loss relative to NNDBTPT without mixing partner / % N loss relative to NNDiTPT without mixing partner / % N loss relative to NPTPT without mixing partner: 30% urea solution, 10 days
Description: as §1

urease [3] = conditions: Table 9, granulated urea, soil in Hanover; for % N loss based on fertilized N quantity: 10 days' incubation, inhibitor 0.125% (w/w) based on urea, 20° C.; for % N loss relative to NBTPT without mixing partner / % N loss relative to NPTPT without mixing partner: 10 days, NBTPT/NPTPT series
Description: as §1

urease [4] = conditions: Table 10, granulated urea, soil in France; for % N loss based on fertilized N quantity: 10 days' incubation, inhibitor 0.125% (w/w) based on urea, 20° C.; for % N loss relative to NBTPT without mixing partner / % N loss relative to NPTPT without mixing partner: 10 days, NBTPT/NPTPT series
Description: as §1

[5] = Table 11, comparative experiment
[6] = Table 12, comparative experiment
[7] = Table 12, NBTPT/NNDiBTPT series

## NP(N)(=S)NC1CCCCC1 [NcHTPT, N-cyclohexylthiophosphoric triamide]
Urease [1]; Table 1
  % N loss based on fertilized N quantity: 2.77%
Urease [1]; Table 1, NBTPT/NcHTPT series
  % N loss relative to NBTPT without mixing partner: 180%
  % N loss relative to NcHTPT without mixing partner: 100%
Urease [2]; Table 5
  % N loss based on fertilized N quantity: 1.11%
Urease [2]; Table 5, NBTPT/NcHTPT series
  % N loss relative to NBTPT without mixing partner: 160%
  % N loss relative to NcHTPT without mixing partner: 100%

## CC(C)CNP(N)(N)=S [NiBTPT, N-isobutylthiophosphoric triamide]
Urease [1]; Table 3
  % N loss based on fertilized N quantity: 1.68%
Urease [1]; Table 3, NBTPT/NiBTPT series
  % N loss relative to NBTPT without mixing partner: 109%
  % N loss relative to NiBTPT without mixing partner: 100%
Urease [2]; Table 7
  % N loss based on fertilized N quantity: 0.54%
Urease [2]; Table 7, NBTPT/NiBTPT series
  % N loss relative to NBTPT without mixing partner: 164%
  % N loss relative to NiBTPT without mixing partner: 100%

## CCCCCNP(N)(N)=S [NPenTPT, N-pentylthiophosphoric triamide]
Urease [1]; Table 2
  % N loss based on fertilized N quantity: 2.46%
Urease [1]; Table 2, NBTPT/NPenTPT series
  % N loss relative to NBTPT without mixing partner: 130%
  % N loss relative to NPenTPT without mixing partner: 100%
Urease [2]; Table 6
  % N loss based on fertilized N quantity: 1.12%
Urease [2]; Table 6, NBTPT/NPenTPT series
  % N loss relative to NBTPT without mixing partner: 158%
  % N loss relative to NPenTPT without mixing partner: 100%

## CCCCN(CCCC)P(N)(N)=S [NNDBTPT, N,N-di-n-butylthiophosphoric triamide]
Urease [2]; [5]
  % N loss based on fertilized N quantity: 19.24%
Urease [2]; Table 11, NBTPT/NNDBTPT series
  % N loss relative to NBTPT without mixing partner: 1013%
  % N loss relative to NNDBTPT without mixing partner: 100%

## CC(C)CN(CC(C)C)P(N)(N)=S [NNDiBTPT, N,N-di-isobutylthiophosphoric triamide]
Urease [2]; [6]
  % N loss based on fertilized N quantity: 21.83%
Urease [2]; [7]
  % N loss relative to NBTPT without mixing partner: 1149%
  % N loss relative to NNDiTPT without mixing partner: 100%

## CCCCNP(N)(N)=S [NBTPT, N-n-butylthiophosphoric triamide]
Urease [1]; Table 1
  % N loss based on fertilized N quantity: 1.54%
Urease [1]; Table 1, NBTPT/NcHTPT series
  % N loss relative to NBTPT without mixing partner: 100%
  % N loss relative to NcHTPT without mixing partner: 56%
Urease [1]; Table 2
  % N loss based on fertilized N quantity: 1.54%
Urease [1]; Table 2, NBTPT/NPenTPT series
  % N loss relative to NBTPT without mixing partner: 100%
  % N loss relative to NPenTPT without mixing partner: 63%
Urease [1]; Table 3
  % N loss based on fertilized N quantity: 1.54%
Urease [1]; Table 3, NBTPT/NiBTPT series
  % N loss relative to NBTPT without mixing partner: 100%
  % N loss relative to NiBTPT without mixing partner: 92%
Urease [1]; Table 4
  % N loss based on fertilized N quantity: 1.54%
Urease [1]; Table 4, NBTPT/NPTPT series
  % N loss relative to NBTPT without mixing partner: 100%
  % N loss relative to NPTPT without mixing partner: 96%
Urease [2]; Table 5
  % N loss based on fertilized N quantity: 0.69%
Urease [2]; Table 5, NBTPT/NcHTPT series
  % N loss relative to NBTPT without mixing partner: 100%
  % N loss relative to NcHTPT without mixing partner: 62%
Urease [2]; Table 6
  % N loss based on fertilized N quantity: 0.71%
Urease [2]; Table 6, NBTPT/NPenTPT series
  % N loss relative to NBTPT without mixing partner: 100%
  % N loss relative to NPenTPT without mixing partner: 63%
Urease [2]; Table 7
  % N loss based on fertilized N quantity: 0.33%
Urease [2]; Table 7, NBTPT/NiBTPT series
  % N loss relative to NBTPT without mixing partner: 100%
  % N loss relative to NiBTPT without mixing partner: 61%
Urease [2]; Table 8
  % N loss based on fertilized N quantity: 0.33%
Urease [2]; Table 8, NBTPT/NPTPT series
  % N loss relative to NBTPT without mixing partner: 100%
  % N loss relative to NPTPT without mixing partner: 79%
Urease [2]; [5]
  % N loss based on fertilized N quantity: 1.90%
Urease [2]; Table 11, NBTPT/NNDBTPT series
  % N loss relative to NBTPT without mixing partner: 100%
  % N loss relative to NNDBTPT without mixing partner: 10%
Urease [2]; [6]
  % N loss based on fertilized N quantity: 1.90%
Urease [2]; [7]
  % N loss relative to NBTPT without mixing partner: 100%
  % N loss relative to NNDiTPT without mixing partner: 9%
Urease [3]
  % N loss based on fertilized N quantity: 1.32%
  % N loss relative to NBTPT without mixing partner: 100%
  % N loss relative to NPTPT without mixing partner: 63%
Urease [4]
  % N loss based on fertilized N quantity: 1.30%
  % N loss relative to NBTPT without mixing partner: 100%
  % N loss relative to NPTPT without mixing partner: 83%

## CCCNP(N)(N)=S [NPTPT, N-n-propylthiophosphoric triamide]
Urease [1]; Table 4
  % N loss based on fertilized N quantity: 1.60%
Urease [1]; Table 4, NBTPT/NPTPT series
  % N loss relative to NBTPT without mixing partner: 104%
  % N loss relative to NPTPT without mixing partner: 100%
Urease [2]; Table 8
  % N loss based on fertilized N quantity: 0.42%
Urease [2]; Table 8, NBTPT/NPTPT series
  % N loss relative to NBTPT without mixing partner: 127%
  % N loss relative to NPTPT without mixing partner: 100%
Urease [3]
  % N loss based on fertilized N quantity: 2.08%
  % N loss relative to NBTPT without mixing partner: 158%
  % N loss relative to NPTPT without mixing partner: 100%
Urease [4]
  % N loss based on fertilized N quantity: 1.57%
  % N loss relative to NBTPT without mixing partner: 121%
  % N loss relative to NPTPT without mixing partner: 100%

Reference: patent US8075659B2, “Preparations with improved urease-inhibiting effect and urea-containing fertilizers containing the latter” (BASF SE, priority 2006, dated 2011)
